{"source": "paper PMC10030467", "about": "(Nature Communications, 2023)", "experiment_in_all_cases": "microscale thermophoresis", "format_in_all_cases": "binding", "key": {"SPRY domain": {"molecular_target": "T1, SPRY domain (Homo sapiens, UniProt Q6ZMU5)", "T1 construct": "gene TRIM72; SPRY domain, residues 278-477; E. coli; GFP-labelled for MST; monomer", "T1 sequence (Q6ZMU5 278-477)": "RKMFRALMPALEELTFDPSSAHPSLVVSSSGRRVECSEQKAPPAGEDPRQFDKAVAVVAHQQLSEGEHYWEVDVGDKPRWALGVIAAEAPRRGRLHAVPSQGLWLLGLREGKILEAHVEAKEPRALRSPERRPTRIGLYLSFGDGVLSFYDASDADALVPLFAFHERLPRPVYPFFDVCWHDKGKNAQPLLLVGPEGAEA", "settings": "50 mM Tris pH 8.0, 80 mM NaCl, 0.05% Tween 20, 0.3 mM TCEP; room temperature; GFP-labelled protein"}, "[1]": {"molecular_target": "T2, TRIM72 (full-length; also MG53) (Homo sapiens, UniProt Q6ZMU5)", "T2 construct": "full-length residues 2-477; E. coli Rosetta (DE3), His-Sumo cut by Ulp1; GFP-labelled for MST, FLAG-tagged for PIP-Strips; dimer", "T2 sequence (Q6ZMU5 2-477)": "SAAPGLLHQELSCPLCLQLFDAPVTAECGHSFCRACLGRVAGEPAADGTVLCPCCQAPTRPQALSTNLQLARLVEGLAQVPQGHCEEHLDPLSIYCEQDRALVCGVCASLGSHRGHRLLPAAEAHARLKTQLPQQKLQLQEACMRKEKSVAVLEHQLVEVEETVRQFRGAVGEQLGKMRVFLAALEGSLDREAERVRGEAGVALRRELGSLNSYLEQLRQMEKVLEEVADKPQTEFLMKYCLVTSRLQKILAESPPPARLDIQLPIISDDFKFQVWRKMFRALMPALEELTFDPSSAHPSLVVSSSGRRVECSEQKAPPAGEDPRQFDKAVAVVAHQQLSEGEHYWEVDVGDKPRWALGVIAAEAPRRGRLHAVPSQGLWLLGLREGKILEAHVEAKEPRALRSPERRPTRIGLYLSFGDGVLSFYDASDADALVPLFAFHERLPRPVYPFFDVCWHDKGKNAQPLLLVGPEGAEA", "settings": "50 mM Tris pH 8.0, 80 mM NaCl, 0.05% Tween 20, 0.3 mM TCEP; room temperature; GFP-labelled protein"}, "[2]": {"molecular_target": "T3, coiled-coil domain alone (121-277) (Homo sapiens, UniProt Q6ZMU5)", "T3 construct": "gene TRIM72; coiled-coil domain, residues 121-277; E. coli; GFP-labelled for MST", "T3 sequence (Q6ZMU5 121-277)": "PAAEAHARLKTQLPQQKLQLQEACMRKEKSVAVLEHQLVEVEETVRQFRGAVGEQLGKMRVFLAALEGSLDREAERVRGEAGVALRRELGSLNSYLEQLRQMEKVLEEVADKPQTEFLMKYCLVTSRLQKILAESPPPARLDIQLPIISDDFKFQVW", "settings": "50 mM Tris pH 8.0, 80 mM NaCl, 0.05% Tween 20, 0.3 mM TCEP; room temperature; GFP-labelled protein"}, "CC-SPRY": {"molecular_target": "T4, CC-SPRY (Homo sapiens, UniProt Q6ZMU5)", "T4 construct": "gene TRIM72; coiled-coil plus SPRY; E. coli; GFP-labelled for MST; dimer", "T4 sequence (Q6ZMU5 122-477)": "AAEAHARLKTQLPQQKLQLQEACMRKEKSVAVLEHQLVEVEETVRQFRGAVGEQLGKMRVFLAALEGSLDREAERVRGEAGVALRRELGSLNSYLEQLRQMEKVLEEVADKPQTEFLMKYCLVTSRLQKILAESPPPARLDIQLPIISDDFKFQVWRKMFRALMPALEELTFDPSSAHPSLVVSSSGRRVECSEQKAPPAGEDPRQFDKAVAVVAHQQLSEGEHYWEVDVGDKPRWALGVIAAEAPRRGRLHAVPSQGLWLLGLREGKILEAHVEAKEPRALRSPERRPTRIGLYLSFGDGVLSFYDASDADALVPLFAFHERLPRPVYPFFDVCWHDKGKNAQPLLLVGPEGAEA", "settings": "50 mM Tris pH 8.0, 80 mM NaCl, 0.05% Tween 20, 0.3 mM TCEP; room temperature; GFP-labelled protein"}, "[3]": {"molecular_target": "T5, TRIM72 (full-length; also MG53) (Homo sapiens, UniProt Q6ZMU5, R169A/R180A/R198A)", "T5 construct": "full-length residues 2-477; E. coli Rosetta (DE3), His-Sumo cut by Ulp1; GFP-labelled for MST, FLAG-tagged for PIP-Strips; dimer", "T5 sequence (Q6ZMU5 2-477 R169A/R180A/R198A)": "T2 sequence (Q6ZMU5 2-477) with R168A, R179A, R197A"}}, "note": "Substitutions are numbered along the chain they refer to. pKd: −log10 of the molar value.", "data": [{"smiles": "N[C@@H](COP(=O)(O)O)C(=O)O", "note": "[phospho-L-serine]", "values": [{"measurement": "pKd", "setting": "SPRY domain", "value": "~5.33"}, {"measurement": "pKd", "setting": "[1]", "value": "~5.00"}, {"measurement": "pKd", "setting": "[2]", "value": "~4.71"}, {"measurement": "pKd", "setting": "CC-SPRY", "value": "~5.00"}, {"measurement": "pKd", "setting": "[3]", "value": "~4.42"}]}]}
